According to US20220016099A1, “BENZIMIDAZOLE OR BENZOXAZOLE DERIVATIVES FOR PREVENTING AND TREATING CENTRAL NERVOUS SYSTEM DISEASE, DIABETES, AND COMPLICATIONS THEREOF” (TRINUERO, priority 2018, published 2022):
Like-named read-outs stand apart in the source and are kept apart here.

Test system: Nrf2
Assay: Nrf2 activity by A549-ARE luciferase assay
Assay type: cell-based
Conditions: read-out: Nrf2 activity
Protocol: Example 1: Method for Measuring Nrf2 Activity of Benzimidazole or Benzoxazole Derivatives Using A549-ARE Luciferase Assay
An assay for Nrf2 activity was performed by modification of the method reported in Ilse M. Beck et al., (2013), European Journal of Pharmacology 715. 1-9.
Specifically, A549-ARE cell line was dispensed into a 96-well plate, and then subjected to treatment with a solution obtained by dissolving 10 μM of each compound in Table 2 in dimethyl sulfoxide (DMSO). On the other hand, Compounds 1 and 13 as shown in Table 2 were obtained from Sigma-Aldrich (US); Compounds 2, 5, 8, 9 12, 15, 18 to 20, 23, 25, 30, and 32 were obtained from Tokyo Chemical Industry Co., Ltd. (JP); Compound 3 was obtained from Labseeker (CN); Compound 4 was obtained from BOC Science (US); Compounds 6 and 7 were obtained from Cambridge (US); Compounds 10, 11, 16, 17, 21, and 22 were obtained from Toronto Research Chemicals (CA); Compound 14 was obtained from Selleckchem (US); Compounds 24, 26, 27, and 31 were obtained from BLD Pharm (CN); Compounds 28 and 33 were obtained from Mcule (US); Compound 29 was obtained from Chemshuttle (US); and Compound 34 was obtained from Alinda (RU).
Thereafter, the 96-well plate was treated with 30 μl of luciferase lysis buffer (90.8 mM K2HPO4, 9.2 mM KH2PO4, 0.1% Triton X-100), and then incubated for 30 minutes or longer so that cell lysis proceeded. The incubated cell lysate was transferred to another 96-well plate (white plate), and then each well was treated with 100 μl of luciferase buffer mixture (20 mM Tricine, 1.07 mM [(MgCO3)4Mg(OH)2.5H2O], 2.67 mM [MgSO4.7H2O], 0.1 mM EDTA, 33.3 mM DTT, 270 μM coenzyme A [CoA], 500 μM D-luciferin, 530 μM ATP). Immediately after the treatment, […] was performed to check Nrf2 activity.

[1] = A549-ARE cell line, 10 μM of each compound in DMSO, Nrf2 activity (%) of compound relative to DMSO using luciferase assay

Compound: COc1ccc2[nH]c([S+]([O-])Cc3ncc(C)c(OC)c3C)nc2c1 (stereo not drawn) [Compound 1, omeprazole, reference compound]
- activity at 10 µM [1]: 0 to 30%

Compound: COc1ccc2[nH]c(SCc3ncc(C)c(OC)c3C)nc2c1 [Compound 2, omeprazole sulfide]
- activity at 10 µM [1]: 0 to 30%

Compound: COc1ccc2[nH]c(S(=O)(=O)Cc3ncc(C)c(OC)c3C)nc2c1 [Compound 3, omeprazole sulfone]
- activity at 10 µM [1]: 0 to 30%

Compound: COc1ccc2[nH]c([S+]([O-])Cc3c(C)c(OC)c(C)c[n+]3[O-])nc2c1 (stereo not drawn) [Compound 4, omeprazole N-oxide]
- activity at 10 µM [1]: 0 to 30%

Compound: COc1ccc2[nH]c(S)nc2c1 [Compound 5, 5-methoxy-2-benzimidazolethiol]
- activity at 10 µM [1]: 30 to 70%

Compound: COc1ccc2c(c1)nc(S)n2C [Compound 6, 5-methoxy-1-methyl-1H-benzimidazole-2-thiol]
- activity at 10 µM [1]: 30 to 70%

Compound: COc1ccc2[nH]c(SC)nc2c1 [Compound 7, 5-methoxy-2-(methylthio)-1H-benzimidazole]
- activity at 10 µM [1]: 0 to 30%

Compound: Cc1c(OCC(F)(F)F)ccnc1C[S+]([O-])c1nc2ccccc2[nH]1 (stereo not drawn) [Compound 8, lansoprazole, reference compound]
- activity at 10 µM [1]: > 100%

Compound: Cc1c(OCC(F)(F)F)ccnc1CSc1nc2ccccc2[nH]1 [Compound 9, lansoprazole sulfide]
- activity at 10 µM [1]: 70 to 100%

Compound: Cc1c(OCC(F)(F)F)ccnc1CS(=O)(=O)c1nc2ccccc2[nH]1 [Compound 10, lansoprazole sulfone]
- activity at 10 µM [1]: 0 to 30%

Compound: Cc1c(OCC(F)(F)F)cc[n+]([O-])c1C[S+]([O-])c1nc2ccccc2[nH]1 (stereo not drawn) [Compound 11, lansoprazole N-oxide]
- activity at 10 µM [1]: 70 to 100%

Compound: Sc1nc2ccccc2[nH]1 [Compound 12, 2-mercaptobenzimidazole]
- activity at 10 µM: 0 to 30%

Compound: Cn1c(S)nc2ccccc21 [Compound 13, 1-methyl-1H-benzimidazole-2-thiol]
- activity at 10 µM [1]: 0 to 30%

Compound: COc1ccnc(C[S+]([O-])c2nc3cc(OC(F)F)ccc3[nH]2)c1OC (stereo not drawn) [Compound 14, pantoprazole, reference compound]
- activity at 10 µM [1]: 70 to 100%

Compound: COc1ccnc(CSc2nc3cc(OC(F)F)ccc3[nH]2)c1OC [Compound 15, pantoprazole sulfide]
- activity at 10 µM [1]: 0 to 30%

Compound: COc1ccnc(CS(=O)(=O)c2nc3cc(OC(F)F)ccc3[nH]2)c1OC [Compound 16, pantoprazole sulfone]
- activity at 10 µM [1]: 0 to 30%

Compound: COc1cc[n+]([O-])c(C[S+]([O-])c2nc3cc(OC(F)F)ccc3[nH]2)c1OC (stereo not drawn) [Compound 17, pantoprazole N-oxide]
- activity at 10 µM [1]: 70 to 100%

Compound: FC(F)Oc1ccc2nc(S)[nH]c2c1 [Compound 18, 5-difluoromethoxy-2-mercaptobenzimidazole]
- activity at 10 µM [1]: 0 to 30%

Compound: COCCCOc1ccnc(C[S+]([O-])c2nc3ccccc3[nH]2)c1C (stereo not drawn) [Compound 19, rabeprazole, reference compound]
- activity at 10 µM [1]: > 100%

Compound: COCCCOc1ccnc(CSc2nc3ccccc3[nH]2)c1C [Compound 20, rabeprazole sulfide]
- activity at 10 µM [1]: > 100%

Compound: COCCCOc1ccnc(CS(=O)(=O)c2nc3ccccc3[nH]2)c1C [Compound 21, rabeprazole sulfone]
- activity at 10 µM [1]: 0 to 30%

Compound: COCCCOc1cc[n+]([O-])c(C[S+]([O-])c2nc3ccccc3[nH]2)c1C (stereo not drawn) [Compound 22, rabeprazole N-oxide]
- activity at 10 µM [1]: 70 to 100%

Compound: Cc1cccc2[nH]c(=S)[nH]c12 [Compound 24, 4-methyl-1H-benzimidazole-2-thiol]
- activity at 10 µM [1]: 0 to 30%

Compound: O=S(=O)(O)c1ccc2[nH]c(=S)[nH]c2c1 [Compound 25, 2-sulfanyl-1H-benzimidazole-5-sulfonic acid]
- activity at 10 µM [1]: 0 to 30%

Compound: O=c1[nH]c2ccc(Cl)cc2[nH]1 [Compound 26, 5-chloro-1,3-dihydrobenzimidazol-2-one]
- activity at 10 µM [1]: 0 to 30%

Compound: O=C1Cc2cc(O)ccc2N1 [Compound 27, 5-hydroxyindolin-2-one]
- activity at 10 µM [1]: 0 to 30%

Compound: O=c1[nH]c2c(Cl)c(Cl)c(Cl)cc2o1 [Compound 28, 4,5,6-trichloro-3H-a,3-benzoxazol-2-one]
- activity at 10 µM [1]: 0 to 30%

Compound: COc1ccc2[nH]c(=O)oc2c1 [Compound 29, 6-methoxybenzo[d]oxazol-2(3H)-one]
- activity at 10 µM [1]: 30 to 70%

Compound: O=[N+]([O-])c1ccc2[nH]c(=S)[nH]c2c1 [Compound 30, 2-mercapto-5-nitrobenzimidazole]
- activity at 10 µM [1]: 0 to 30%

Compound: O=c1[nH]c2cc(Cl)c(O)cc2o1 [Compound 31, 6-hydroxychlorzoxazone]
- activity at 10 µM [1]: 0 to 30%

Compound: S=c1[nH]c2ccc(Cl)cc2[nH]1 [Compound 32, 5-chloro-2-mercaptobenzimidazole]
- activity at 10 µM [1]: 70 to 100%

Compound: S=c1[nH]c2cc3ccccc3cc2[nH]1 [Compound 33, 1,3-dihydrobenzo[f]benzimidazole-2-thione]
- activity at 10 µM [1]: 0 to 30%

Compound: COc1cc2nc(S)[nH]c2cc1OC [Compound 34, 5,6-dimethoxy-1H-benzo[d]imidazol-2-thiol]
- activity at 10 µM [1]: 0 to 30%
